The source of these data is patent publication US8404713B2, “Quinolinone derivatives as PARP inhibitors” (Janssen Pharmaceutica NV, priority 2007, dated 2013).

The target of one experiment is T1, Human PARP-1 enzyme (Homo sapiens, UniProt P09874).
T1 construct: purchased Trevigen
Description: In vitro scintillation proximity assay (SPA) for PARP-1 inhibitory activity. Type of experiment: biochemical. To be noted: nicked DNA activated PARP-1, [3H]-NAD+, biotinylated histones; tested between 10^-5 M and 3x10^-9 M; read-out: in vitro SPA assay PARP-1 pIC50 (converted). On the procedure:
C.1. In Vitro Scintillation Proximity Assay (SPA) for PARP-1 Inhibitory Activity
Compounds of the present invention were tested in an in vitro assay based on SPA technology (proprietary to GE healthcare).
In principle, the assay relies upon the well established SPA technology for the detection of poly(ADP-ribosyl)ation of biotinylated target proteins, i.e histones. This ribosylation is induced using nicked DNA activated PARP-1 enzyme and [^3H]-nicotinamide adenine dinucleotide ([^3H]-NAD^+) as ADP-ribosyl donor.
Histones (type II-A, supplier: Sigma) were biotinylated using the biotinylation kit of Amersham and stored aliquoted at −20° C. A stock solution of 100 mg/ml SPA poly(vinyl toluene) (PVT) beads (supplier: Amersham) was made in PBS. A stock solution of 61.6 nM [^3H]-NAD^+ was made by adding [^3H]-NAD^+ (0.1 mCi/ml, supplier: Perkin Elmer) to incubation buffer (50 mM Tris/HCl, pH 8; 0.2 mM DTT; 4 mM MgCl2). A solution of 4 mM NAD^+ (supplier: Sigma) was made. Human PARP-1 enzyme was obtained from Trevigen. Biotinylated histones and PVT-SPA beads were mixed and pre-incubated for 30 min. at room temperature. PARP-1 enzyme (concentration was lot dependent) was mixed with the nicked DNA and the mixture was pre-incubated for 30 min. at 4° C. Equal parts of this histones/PVT-SPA beads solution and PARP-1 enzyme/DNA solution were mixed and 75 μl of this mixture together with 1 μl of compound in DMSO and 25 μl of [^3H]-NAD^+ was added per well into a 96-well microtiterplate. The final concentrations in the incubation mixture were 2 μg/ml for the biotinylated histones, 2 mg/ml for the PVT-SPA beads, 0.25 μg/ml for the nicked DNA and between 0.1-0.2 μg/ml for the PARP-1 enzyme. After incubation of the mixture for 20 min. at room temperature, the reaction was terminated by adding 100 μl of 4 mM NAD^+ in water (final concentration 2 mM) and plates were mixed. The beads were sedimented by centrifugation (10 min, 800 rpm). and plates transferred to a TopCountNXT™ (Packard) for scintillation counting, values were expressed as counts per minute (cpm). For each experiment, controls (containing PARP-1 enzyme and DMSO without compound), a blank incubation (containing DMSO but no PARP-1 enzyme, no DNA or compound) and samples (containing PARP-1 enzyme, DNA and compound dissolved in DMSO) were run in parallel. All compounds tested were dissolved and eventually further diluted in DMSO. A dose-response curve was made wherein the compounds were tested at concentrations between 10^−5M and 3×10^−9M. In each test, the blank value was subtracted from both the control and the sample values. The control sample represented maximal PARP-1 enzyme activity. For each sample, the amount of cpm was expressed as a percentage of the mean cpm value of the controls. When appropriate, IC50-values (concentration of the drug, needed to reduce the PARP-1 enzyme activity to 50% of the control) were computed using linear interpolation between the experimental points just above and below the 50% level. Herein the effects of test compounds are expressed as pIC50 (the negative log value of the IC50-value). As a reference compound, 4-amino-1,8-naphthalimide was included to validate the SPA assay.

Another experiment addresses T2, TANK-2 enzyme (Homo sapiens, UniProt Q9H2K2).
T2 construct: made in house
T2 sequence (Q9H2K2 1-1166): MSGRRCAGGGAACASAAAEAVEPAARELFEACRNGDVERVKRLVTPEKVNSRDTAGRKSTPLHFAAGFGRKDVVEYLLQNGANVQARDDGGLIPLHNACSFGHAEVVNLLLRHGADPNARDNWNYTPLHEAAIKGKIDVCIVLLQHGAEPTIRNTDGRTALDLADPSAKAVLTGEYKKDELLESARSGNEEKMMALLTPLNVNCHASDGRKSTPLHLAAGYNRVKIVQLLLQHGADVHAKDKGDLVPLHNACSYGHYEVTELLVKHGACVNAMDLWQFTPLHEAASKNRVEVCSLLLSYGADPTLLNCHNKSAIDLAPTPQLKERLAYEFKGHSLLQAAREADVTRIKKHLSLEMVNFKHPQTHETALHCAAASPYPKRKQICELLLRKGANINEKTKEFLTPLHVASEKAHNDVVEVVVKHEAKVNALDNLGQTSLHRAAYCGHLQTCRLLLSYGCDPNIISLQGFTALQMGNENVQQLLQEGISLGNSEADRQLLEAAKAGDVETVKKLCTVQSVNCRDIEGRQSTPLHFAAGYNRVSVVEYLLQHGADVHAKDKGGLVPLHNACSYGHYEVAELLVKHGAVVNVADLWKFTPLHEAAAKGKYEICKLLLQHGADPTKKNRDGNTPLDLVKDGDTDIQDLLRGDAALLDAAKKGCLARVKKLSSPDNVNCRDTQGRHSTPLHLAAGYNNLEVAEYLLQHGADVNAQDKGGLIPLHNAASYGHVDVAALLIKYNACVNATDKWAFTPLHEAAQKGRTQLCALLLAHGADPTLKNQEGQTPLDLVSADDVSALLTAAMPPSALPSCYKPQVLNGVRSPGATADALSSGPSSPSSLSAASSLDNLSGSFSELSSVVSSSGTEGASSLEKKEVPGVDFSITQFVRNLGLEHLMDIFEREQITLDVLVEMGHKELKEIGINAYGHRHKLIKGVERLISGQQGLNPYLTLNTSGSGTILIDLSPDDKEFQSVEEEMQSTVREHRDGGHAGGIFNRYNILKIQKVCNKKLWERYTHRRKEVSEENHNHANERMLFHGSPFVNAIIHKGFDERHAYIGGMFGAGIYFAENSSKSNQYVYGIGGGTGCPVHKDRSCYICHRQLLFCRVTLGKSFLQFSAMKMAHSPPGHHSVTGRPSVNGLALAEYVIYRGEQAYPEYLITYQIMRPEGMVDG
The experiment is described as follows: In vitro scintillation proximity assay (SPA) for TANK-2 inhibitory activity. In kind it is biochemical. To be noted: auto-poly(ADP-ribosyl)ation, Ni flash plates; 96-well results if available, otherwise 384-well; tested between 10^-5 M and 3x10^-8 M; read-out: in vitro SPA assay TANK-2 pIC50 (converted). As for the experimental part:
C.2. In Vitro Scintillation Proximity Assay (SPA) for TANK-2 Inhibitory Activity
Compounds of the present invention were tested in an in vitro assay based on SPA technology with Ni Flash plates (96 or 384 well).
In principle, the assay relies upon SPA technology for the detection of auto-poly(ADP-ribosyl)ation of TANK-2 protein using [^3H]-nicotinamide adenine dinucleotide ([^3H]-NAD^+) as ADP-ribosyl donor.
A stock solution of 100 nM [^3H]-NAD^+/NAD (0.1 mCi/ml, supplier: Perkin Elmer) and 0.25 mM NAD (Sigma) was made in assay buffer (60 mM Tris/HCl, pH 7.4; 0.9 mM DTT; 6 mM MgCl2). The TANK-2 enzyme was produced as described in EP1238063. 60 μl of assay buffer, together with 1 μl of compound in DMSO, 20 μl of [^3H]-NAD^+/NAD and 20 μl of TANK-2 enzyme (final concentration 8 μg/ml) was added per well into a 96-well Ni-coated flash plate (Perkin Elmer). After incubation of the mixture for 120 min. at room temperature, the reaction was terminated by adding 60 μl of stopsolution (42.6 mg NAD in 6 ml H2O). The plates were covered with a plate sealer and placed in a TopCountNX™ (Packard) for scintillation counting. Values were expressed as counts per minute (cpm). For each experiment, controls (containing TANK-2 enzyme and DMSO without compound), a blank incubation (containing DMSO but no TANK-2 enzyme or compound) and samples (containing TANK-2 enzyme and compound dissolved in DMSO) were run in parallel. All compounds tested were dissolved and eventually further diluted in DMSO. […] In each test, the blank value was subtracted from both the control and the sample values. The control sample represented maximal TANK-2 enzyme activity. For each sample, the amount of cpm was expressed as a percentage of the mean cpm value of the controls. When appropriate, IC50-values (concentration of the drug, needed to reduce the TANK-2 enzyme activity to 50% of the control) were computed using linear interpolation between the experimental points just above and below the 50% level. Herein the effects of test compounds are expressed as pIC50 (the negative log value of the IC50-value). As reference compounds, 3-aminobenzamide and 4-amino-1,8-naphtalimide were included to validate the SPA assay. Herein the assay was described using 96-well plates. In the assay using 384-well plates the same final concentrations were used and volumes were adapted.

T1 sequence (P09874 whole entry): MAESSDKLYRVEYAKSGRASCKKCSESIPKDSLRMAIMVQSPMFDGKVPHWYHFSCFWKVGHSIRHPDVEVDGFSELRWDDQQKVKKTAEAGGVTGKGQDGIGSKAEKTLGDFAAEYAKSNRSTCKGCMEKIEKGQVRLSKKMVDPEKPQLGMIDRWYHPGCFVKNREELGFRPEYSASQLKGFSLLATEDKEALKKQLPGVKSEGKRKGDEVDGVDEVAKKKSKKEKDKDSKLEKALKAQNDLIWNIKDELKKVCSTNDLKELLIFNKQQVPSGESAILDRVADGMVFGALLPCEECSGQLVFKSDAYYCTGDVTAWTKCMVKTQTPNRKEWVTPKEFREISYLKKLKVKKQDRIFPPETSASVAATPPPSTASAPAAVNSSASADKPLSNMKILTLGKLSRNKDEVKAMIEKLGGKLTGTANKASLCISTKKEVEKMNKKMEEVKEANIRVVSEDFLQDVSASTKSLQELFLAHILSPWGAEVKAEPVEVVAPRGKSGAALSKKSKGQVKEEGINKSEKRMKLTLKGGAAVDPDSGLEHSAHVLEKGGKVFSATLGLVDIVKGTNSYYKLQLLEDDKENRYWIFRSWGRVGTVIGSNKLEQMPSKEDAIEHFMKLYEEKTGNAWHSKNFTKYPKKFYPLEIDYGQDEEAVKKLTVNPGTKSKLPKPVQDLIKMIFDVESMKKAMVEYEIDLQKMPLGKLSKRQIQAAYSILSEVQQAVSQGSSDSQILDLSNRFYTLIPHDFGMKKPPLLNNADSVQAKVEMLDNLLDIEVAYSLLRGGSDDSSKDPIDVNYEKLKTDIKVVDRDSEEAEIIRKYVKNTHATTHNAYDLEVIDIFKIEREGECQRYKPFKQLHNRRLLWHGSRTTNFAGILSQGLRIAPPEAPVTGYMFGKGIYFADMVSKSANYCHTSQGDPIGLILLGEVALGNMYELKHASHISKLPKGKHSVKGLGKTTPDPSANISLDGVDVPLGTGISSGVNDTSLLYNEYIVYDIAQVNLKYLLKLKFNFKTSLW

As for `CCc1cc2ccc(CN3CCN(CCc4ccccc4)CC3)cc2[nH]c1=O` [Compound 44], the IC50 is 6.9 nM on Human PARP-1 enzyme and 2190 nM on TANK-2 enzyme.
For `Cc1cc2ccc(C(C)N3CCN(c4cccc(Cl)c4)CC3)cc2[nH]c1=O` (stereo not shown) [Compound 58] the same measures were 95.9 nM and 2320 nM.
For `CCc1cc2c(OC)cc(CN3CCN(c4ccccc4Cl)CC3)cc2[nH]c1=O` [Compound 71] the same measures were 4.27 nM and 1780 nM.
Consider `CCc1cc2ccc(CCCN3CCN(c4ccc(C#N)cn4)CC3)cc2[nH]c1=O` [Compound 8], for which the IC50 on Human PARP-1 enzyme was 170 nM; at TANK-2 enzyme it was 63.2 nM.
With `CCc1cc2ccc(CN3CC=C(c4ccccc4)CC3)cc2[nH]c1=O` [Compound 21], the figures for the IC50 on Human PARP-1 enzyme and at TANK-2 enzyme were 1.03 nM and 986 nM, respectively.
For `Cc1cc2ccc(C(C)N3CC=C(c4ccccc4)CC3)cc2[nH]c1=O` (stereo not shown) [Compound 51], in that order: 1.49 nM and 1280 nM.
For `CCc1cc2ccc(CNCCN3CCOCC3)cc2[nH]c1=O` [Compound 19] the same measures were 4.6 nM and 5870 nM.
For `CCc1cc2ccc(CNCC3CCN(c4ncccn4)CC3)cc2[nH]c1=O` [Compound 25], in that order: 136 nM and 1100 nM.
On to `Cc1cc2ccc(C(C3CCCCC3)N3CCC(c4ccccc4)CC3)cc2[nH]c1=O` (stereo not shown) [Compound 65], for which the IC50 on Human PARP-1 enzyme is 4070 nM; at TANK-2 enzyme it was more than 10000 nM.
Take `Cc1cc2ccc(C(=O)N3CCN(c4ccccc4Cl)CC3)cc2[nH]c1=O` [Compound 60]: the results for the IC50 at Human PARP-1 enzyme and at TANK-2 enzyme were 116 nM and more than 10000 nM, respectively.
Regarding `CCc1cc2ccc(CN3CCN(c4ccc(C(F)(F)F)cn4)CC3)cc2[nH]c1=O` [Compound 22], the figures for the IC50 at Human PARP-1 enzyme and on TANK-2 enzyme were 1.21 nM and 368 nM, respectively.
For `COc1ccccc1N1CCN(C(c2ccc3cc(C)c(=O)[nH]c3c2)C2CCCCC2)CC1` (stereo not shown) [Compound 72], in that order: not below 10000 nM and 933 nM.
For `CCc1cc2ccc(CN(C)CCOC)cc2[nH]c1=O` [Compound 38], in that order: 11.9 nM and 867 nM.
For `Cc1cc2ccc(C(C3CCCCC3)N3CCN(c4ccc(C#N)cn4)CC3)cc2[nH]c1=O` (stereo not shown) [Compound 70] the same measures were 275 nM and 1910 nM.
For the compound `Cc1cc2ccc(C(C(C)C)N3CCN(c4ccc(C#N)cn4)CC3)cc2[nH]c1=O` (stereo not shown) [Compound 66], the figures for the IC50 on Human PARP-1 enzyme and at TANK-2 enzyme were 195 nM and 1230 nM, respectively.
Take `CCc1cc2ccc(CN3CCCC3)cc2[nH]c1=O` [Compound 61]: the IC50 on Human PARP-1 enzyme is 5.36 nM; on TANK-2 enzyme it was 4220 nM.
For `Cc1cc2ccc(C(=O)N3CC=C(c4ccccc4)CC3)cc2[nH]c1=O` [Compound 59] the same measures were 129 nM and 818 nM.
With `CCc1cc2ccc(CN3CCN(c4ncc(C(=O)NCCO)cn4)CC3)cc2[nH]c1=O` [Compound 62], the IC50 at Human PARP-1 enzyme was 8.95 nM; at TANK-2 enzyme, 33 nM.
As for `CCc1cc2ccc(CN3CCN(c4ncc(C(=O)O)cn4)CC3)cc2[nH]c1=O` [Compound 12], the IC50 is 77.1 nM at Human PARP-1 enzyme and 65.5 nM at TANK-2 enzyme.
For `CCc1cc2ccc(CN3CCN(c4ccc(C)c(C)c4)CC3)cc2[nH]c1=O` [Compound 40], in that order: 25.6 nM and 649 nM.
For `Cc1cc2ccc(C(C)N3CCC(c4ccc(Cl)cc4)CC3)cc2[nH]c1=O` (stereo not shown) [Compound 50], in that order: 1.5 nM and 2800 nM.
For `CCc1cc2ccc(C(O)CN3CCN(c4ncccn4)CC3)cc2[nH]c1=O` (stereo not shown) [Compound 32] the same measures were 89.5 nM and 92.3 nM.
In the case of `CCc1cc2ccc(C(CO)N3CCN(c4ncccn4)CC3)cc2[nH]c1=O` (stereo not shown) [Compound 33], the IC50 on Human PARP-1 enzyme is 84.7 nM; at TANK-2 enzyme, 780 nM.
For `CCc1cc2ccc(CN3CCN(c4ccc(OC)c(OC)c4)CC3)cc2[nH]c1=O` [Compound 41] the same measures were 34.2 nM and 500 nM.
For `Cc1cc2ccc(C(C3CCCCC3)N3CCN(c4ccccc4C#N)CC3)cc2[nH]c1=O` (stereo not shown) [Compound 67] the same measures were 708 nM and more than 10000 nM.
For `Cc1cc2ccc(C(C3CCCCC3)N3CC=C(c4ccccc4)CC3)cc2[nH]c1=O` (stereo not shown) [Compound 73] the same measures were 1290 nM and 646 nM.
